# How the values were obtained:
# [1] = DPPH free radical scavenging (antioxidant) assay; details: for DPPH percent inhibition: mean ± SEM, n = 3
# Description: The previously outlined methodology will be employed to evaluate the compounds’ antioxidant ability, as determined by the processes of the 1,1-diphenyl, 2-picrylhydrazyl (DPPH) free radical. The experimental specimens will be subjected to dilution using different quantities, spanning from 62.5 to 1000 μg/ml, and afterwards introduced into a methanolic solution of DPPH at a concentration of 0.004%. At 517 nm, the absorbance will be determined by a UV spectrophotometer following a 30-minute duration. The scavenging capability of ascorbic acid will be quantified by employing the equation: DPPH=[(A0−A1)/A0]100 Whereas: […]
# Every test was carried out three times, and the median inhibitory dosages (IC50) were determined. The drawing of inhibition graphs was performed by GraphPad Prism software-GraphPAD, San Diego, California, USA.
# The IC50 values were determined from dosage response curve using Microsoft Excel program.
# paw edema = details: dose dependent manner; cited from earlier work
# 5-LOX = details: cited from earlier work
# COX = details: cited from earlier work
# tumor growth = details: in vivo and in vitro; cited from earlier work
# [2] = target: T1, 5-lipoxygenase (5-LOX) enzyme (Homo sapiens, UniProt P09917); assay: 5-LOX inhibitory assay; type: biochemical; details: for inhibition at 62.5 µg/mL: 62.5 μg/ml; for inhibition at 62.5 µg/mL / inhibition at 125 µg/mL / inhibition at 250 µg/mL / inhibition at 500 µg/mL / inhibition at 1000 µg/mL: mean ± SEM, n = 3, read-out: 5-LOX percent inhibition; for inhibition at 125 µg/mL: 125 μg/ml; for inhibition at 250 µg/mL: 250 μg/ml; for inhibition at 500 µg/mL: 500 μg/ml; for inhibition at 1000 µg/mL: 1000 μg/ml
# T1 sequence (P09917 1-674): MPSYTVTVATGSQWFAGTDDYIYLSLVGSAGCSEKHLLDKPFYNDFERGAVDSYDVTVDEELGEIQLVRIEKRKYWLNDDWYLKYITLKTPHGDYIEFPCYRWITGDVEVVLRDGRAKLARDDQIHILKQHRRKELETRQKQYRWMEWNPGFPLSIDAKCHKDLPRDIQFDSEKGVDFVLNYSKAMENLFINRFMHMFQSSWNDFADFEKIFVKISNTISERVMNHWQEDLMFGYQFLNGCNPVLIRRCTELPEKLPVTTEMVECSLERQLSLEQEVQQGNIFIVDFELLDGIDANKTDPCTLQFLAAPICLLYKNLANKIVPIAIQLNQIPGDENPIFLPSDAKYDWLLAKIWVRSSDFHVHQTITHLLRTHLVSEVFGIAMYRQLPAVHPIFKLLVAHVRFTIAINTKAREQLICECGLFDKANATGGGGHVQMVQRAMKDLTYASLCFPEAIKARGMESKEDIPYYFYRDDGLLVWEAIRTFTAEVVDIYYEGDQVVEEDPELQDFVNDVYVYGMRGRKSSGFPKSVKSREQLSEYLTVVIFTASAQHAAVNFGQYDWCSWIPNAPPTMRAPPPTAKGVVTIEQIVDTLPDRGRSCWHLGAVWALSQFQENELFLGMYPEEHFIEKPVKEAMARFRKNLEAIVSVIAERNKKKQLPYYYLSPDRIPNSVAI
# Description: The synthesized Isoxazole derivatives will be investigated for 5-LOX Inhibition studies as per established protocols of Wisastra and his co researchers. In this experiment, residual enzyme potential will be utilized to measure the degree of enzyme inhibition after 10 to 15 minutes of inhibitor’s incubation at 25°C. The reaction involving the conversion of linoleic acid, a substrate of lipoxygenase, into hydroperoxy-octadecadienoate (HPOD) will be employed as a means of quantifying the said reaction. The variation in the rate of absorption will be determined by employing a UV-visible spectrophotometer set at a wavelength of 234 nm. A 50 mM Tris buffer containing 2 mM EDTA and 2 mM CaCl2 was used as the assay buffer in this experiment. The buffer has a pH of 7.5. Following this, a buffer solution was employed to dilute the 5-lipoxygenase (5-LOX) enzyme at a concentration of 20,000 units per millilitre (U/mL) at a ratio of 1:4000. The 100 mM inhibitor was diluted using the test buffer following the administration of dimethyl sulfoxide (DMSO) for its dissolution. The content of linoleic acid was reduced to 20 mg/ml through dilution using ethyl alcohol. To accomplish this, 1 mL of the enzyme solution (1: 4000) will be combined with 100 μL of 2 mM adenosine triphosphate (ATP), 100 μL of the inhibitor (1 mM), and […] of Tris buffer while incubated for 10 min. Following approximately 10 seconds of the substrate and the enzyme mixing together, 10 μL of a 20 mM substrate solution will be added to the mixture. At that point, the changing rate of the substrate will be determined. The response rate will be utilized as a positive control without blockers. In this experiment, montelukast will be utilized as the reference medicine.
IC50 [1] [µM],Structure (SMILES),DPPH percent inhibition ([1]; 62.5 μg/mL) [%],DPPH percent inhibition ([1]; 125 μg/mL) [%],DPPH percent inhibition ([1]; 250 μg/mL) [%],DPPH percent inhibition ([1]; 500 μg/mL) [%],DPPH percent inhibition ([1]; 1000 μg/mL) [%],inhibition of paw edema (paw edema),activity of 5-LOX (5-LOX),activity of COX (COX),inhibition on tumor growth (tumor growth),IC50 [2] [µM],inhibition at 62.5 µg/mL [2] [%],inhibition at 125 µg/mL [2] [%],inhibition at 250 µg/mL [2] [%],inhibition at 500 µg/mL [2] [%],inhibition at 1000 µg/mL [2] [%]
17.9,"O=C1O[C@H]([C@@H](O)CO)C(O)=C1O [Ascorbic acid, reference compound]",77.72±0.59,79.37±0.71,82.25±0.72,87.65±0.42,92.51±0.69,–,–,–,–,–,–,–,–,–,–
–,CCO/C(C)=N/c1onc(C)c1C(=O)NCc1ccc(OC)cc1OC [Compound 64],–,–,–,–,–,strongly inhibited,–,–,–,–,–,–,–,–,–
–,COc1cc(-c2cc(-c3sccc3C)no2)cc(OC)c1OC [Compound 65],–,–,–,–,–,–,considerably reduce,considerably reduce,excellent inhibition,–,–,–,–,–,–
18.9,COc1ccc(C2NC(=O)NC(C(F)(F)F)=C2c2cc(-c3ccco3)on2)cc1 (stereo not shown) [Compound C6],73.72±0.64,78.42±0.66,83.53±0.45,88.45±0.49,91.63±0.55,–,–,–,–,3.67,81.9 ± 0.96,85.08 ± 0.47,88.8 ± 1.26,91.4 ± 0.2,94.6 ± 1.12
–,"CC(C)(O)c1ccccc1CC[C@@H](SCC1(CC(=O)O)CC1)c1cccc(/C=C/c2ccc3ccc(Cl)cc3n2)c1 [Montelukast, reference compound]",–,–,–,–,–,–,–,–,–,21.8,71.8 ± 0.9,76.4 ± 1.2,81.6 ± 1.63,87.5 ± 0.9,94.1 ± 1.04

# — PMC11452043, “In vitro 5-LOX inhibitory and antioxidant potential of isoxazole derivatives” (PLOS ONE, 2024)
